Assay results from US8889704B2 (Array BioPharma Inc., priority 2011, dated 2014).
pIC50: −log10 of the molar value. Structures can show the parent of a compound that is named as a salt.

How the values were obtained:
Assay type in all cases: biochemical
recombinant rat PIM-3 = recombinant rat PIM-3 (Rattus norvegicus, UniProt O70444); test: PIM-3 Assay (as Example A); details: averaged IC50; 30 μM ATP, 3.75 μM PIM2tide, 0.5 nM PIM-3
Summary of the method: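 Recombinant rat PIM-3 (0.5 nM) with 3.75 μM PIM2tide and 30 μM [γ-33P]ATP in MOPS pH 7.4 buffer, 60 min at 22 °C; labelled peptide captured on phosphocellulose filters and counted by scintillation. 10-point curve (top dose 10 μM, 2% DMSO); IC50 from 4-parameter fit of percent of control.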

[1] = biological target: T1, GST-tagged recombinant full-length human Pim-2 (Homo sapiens, UniProt Q9P1W9); test: PIM-2 Assay (as Example A); details: averaged IC50; 4 μM ATP, 1.0 μM PIM2tide, 1.5 nM Pim-2
T1 construct: GST-tagged recombinant full-length human Pim-2; GST
Summary of the method: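 Radiometric filter-binding assay: GST-tagged full-length human Pim-2 (1.5 nM) phosphorylates 1.0 μM PIM2tide with 4 μM [γ-33P]ATP for 60 min at 22 °C in pH 7.4 MOPS buffer, 2% DMSO. 10-point 3-fold dilutions from 10 μM top dose; IC50 from 4-parameter fit of percent of control.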

PIM-1 = PIM-1 (Homo sapiens, UniProt P11309); test: Enzyme PIM-1 Assay ([33P]ATP incorporation into PIM2tide, filter plate); details: averaged IC50; 35 μM ATP, 7.5 μM PIM2tide, 0.25 nM PIM-1, 60 min at 22° C.
Summary of the method: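 Radiometric assay: 0.25 nM PIM-1 phosphorylates 7.5 μM PIM2tide with 35 μM [γ-33P]ATP in 20 mM MOPS pH 7.4, 10 mM MgCl2, 1 mM DTT, 0.005% Tween-20, 60 min at 22 °C. Product captured on P81 filters, scintillation counted; 10-point 3-fold curve from 10 μM top, 2% DMSO, IC50 by 4-parameter logistic fit of POC.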

Chain of PIM-1 (P11309 whole entry, species assumed): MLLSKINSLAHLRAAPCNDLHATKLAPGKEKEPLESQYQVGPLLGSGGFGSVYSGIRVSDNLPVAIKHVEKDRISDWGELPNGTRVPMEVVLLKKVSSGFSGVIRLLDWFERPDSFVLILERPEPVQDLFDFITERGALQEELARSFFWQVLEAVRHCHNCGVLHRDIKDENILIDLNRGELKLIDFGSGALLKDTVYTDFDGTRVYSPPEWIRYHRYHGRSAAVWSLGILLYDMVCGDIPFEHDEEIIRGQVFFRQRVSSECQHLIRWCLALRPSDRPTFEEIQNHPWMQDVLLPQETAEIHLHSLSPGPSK
T1 sequence (Q9P1W9 whole entry): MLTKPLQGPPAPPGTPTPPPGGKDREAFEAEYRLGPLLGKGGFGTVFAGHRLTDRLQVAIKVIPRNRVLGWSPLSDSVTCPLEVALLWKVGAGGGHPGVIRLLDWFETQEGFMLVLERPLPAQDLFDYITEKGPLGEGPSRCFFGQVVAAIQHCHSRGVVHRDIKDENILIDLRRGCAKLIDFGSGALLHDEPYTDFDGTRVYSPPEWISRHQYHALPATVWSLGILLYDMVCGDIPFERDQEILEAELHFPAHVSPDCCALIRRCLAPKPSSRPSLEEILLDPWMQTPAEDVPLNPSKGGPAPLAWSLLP

| SMILES | pIC50 (recombinant rat PIM-3) | pIC50 [1] | pIC50 (PIM-1) |
| --- | --- | --- | --- |
| CC1(COc2ccc3ccc(-c4nnc5ccc([C@@H](N6CC[C@H](N)C6)C(F)(F)F)cn45)nc3c2)COC1 [Example 198, (S)-1-((R)-2,2,2-trifluoro-1-(3-(7-((3-methyloxetan-3-yl)methoxy)quinolin-2-yl)-[1,2,4]triazolo[4,3-a]pyridin-6-yl)ethyl)pyrrolidin-3-amine diformate] | 9.70 | 6.91 | 9.85 |
| COCCc1ccc2ccc(-c3nnc4ccc([C@H](N5CC[C@](C)(N)C5)C(F)(F)F)cn34)nc2c1 [Example 300, (S)-3-methyl-1-((S)-2,2,2-trifluoro-1-(3-(7-(2-methoxyethyl)quinolin-2-yl)-[1,2,4]triazolo[4,3-a]pyridin-6-yl)ethyl)pyrrolidin-3-amine dihydrochloride] | 9.40 | 7.19 | 9.44 |
| COc1cc2nc(-c3nnc4ccc([C@@H](N5C[C@@H](N)[C@@H](F)C5)C(F)(F)F)cn34)ccc2cc1F [Example 210, (3R,4S)-4-fluoro-1-((R)-2,2,2-trifluoro-1-(3-(6-fluoro-7-methoxyquinolin-2-yl)-[1,2,4]triazolo[4,3-a]pyridin-6-yl)ethyl)pyrrolidin-3-amine dihydrochloride] | < 7.00 | < 6.00 | < 7.00 |
| N[C@H]1CCN([C@@H](c2ccc3nnc(-c4ccc5cccc(C6CC6)c5n4)n3c2)C(F)(F)F)C1 [Example 51, (S)-1-((S)-1-(3-(8-cyclopropylquinolin-2-yl)-[1,2,4]triazolo[4,3-a]pyridin-6-yl)-2,2,2-trifluoroethyl)pyrrolidin-3-amine dihydrochloride] | 8.96 | 7.96 | 10.00 |
| N[C@@H]1CN([C@H](c2ccc3nnc(-c4ccc5cc(F)cc(C6CC6)c5n4)n3c2)C(F)(F)F)C[C@H]1O [Example 181, (3R,4R)-4-amino-1-((R)-1-(3-(8-cyclopropyl-6-fluoroquinolin-2-yl)-[1,2,4]triazolo[4,3-a]pyridin-6-yl)-2,2,2-trifluoroethyl)pyrrolidin-3-ol dihydrochloride] | 8.57 | 7.02 | 9.39 |
| CC(C)(C)c1cccc2ccc(-c3nnc4ccc([C@@H](N5C[C@@H](O)[C@H](O)C5)C(F)(F)F)cn34)nc12 [Example 74, (3R,4R)-1-((R)-1-(3-(8-tert-butylquinolin-2-yl)-[1,2,4]triazolo[4,3-a]pyridin-6-yl)-2,2,2-trifluoroethyl)pyrrolidine-3,4-diol] | 8.17 | 7.39 | 10.05 |
| COc1cc2nc(-c3nnc4ccc([C@@H](N5CC(F)[C@H](N)C5)C(F)(F)F)cn34)ccc2cc1F (stereo partly drawn) [Example 162, (3R)-4-fluoro-1-((R)-2,2,2-trifluoro-1-(3-(6-fluoro-7-methoxyquinolin-2-yl)-[1,2,4]triazolo[4,3-a]pyridin-6-yl)ethyl)pyrrolidin-3-amine dihydrochloride] | 7.46 | < 7.00 | 8.91 |
| CCOc1ccc2ccc(-c3nnc4ccc([C@H](N5CC[C@H](N)C5)C(F)(F)F)cn34)nc2c1 [Example 256, (S)-1-((S)-1-(3-(7-ethoxyquinolin-2-yl)-[1,2,4]triazolo[4,3-a]pyridin-6-yl)-2,2,2-trifluoroethyl)pyrrolidin-3-amine dihydrochloride] | 9.00 | 6.70 | 9.24 |
| Cn1cc(-c2ccc3ccc(-c4nnc5ccc([C@@H](N6CC[C@H](N)C6)C(F)(F)F)cn45)nc3c2)cn1 (single isomer, unassigned) [Example 15, tri-hydrochloride] | 9.52 | 7.23 | 10.05 |
| CCC1(N)CCN([C@@H](c2ccc3nnc(-c4ccc5cccc(OC)c5n4)n3c2)C(F)(F)F)C1 (single isomer, unassigned; diastereomer 1) [Example 250, dihydrochloride] | 7.96 | 6.06 | 8.56 |
| CC(=O)OCCOc1cc2nc(-c3nnc4ccc([C@@H](N5CC[C@H](N)C5)C(F)(F)F)cn34)ccc2cc1F [Example 122, 2-(2-(6-((R)-1-((S)-3-aminopyrrolidin-1-yl)-2,2,2-trifluoroethyl)-[1,2,4]triazolo[4,3-a]pyridin-3-yl)-6-fluoroquinolin-7-yloxy)ethyl acetate hydrochloride] | 9.15 | < 7.00 | 9.70 |
| N[C@H]1CCN(C(c2ccc3nnc(-c4ccc5cccc(OCC6CC6)c5n4)n3c2)C(F)(F)F)C1 (stereo partly drawn) [Example 5, (3S)-1-(1-(3-(8-(cyclopropylmethoxy)quinolin-2-yl)-[1,2,4]triazolo[4,3-a]pyridin-6-yl)-2,2,2-trifluoroethyl)pyrrolidin-3-amine dihydrochloride] | 8.59 | 6.88 | 9.60 |
| CC(C)Oc1cc2nc(-c3nnc4ccc([C@@H](N5CC[C@H](N)C5)C(F)(F)F)cn34)ccc2cc1F [Example 119, (S)-1-((R)-2,2,2-trifluoro-1-(3-(6-fluoro-7-isopropoxyquinolin-2-yl)-[1,2,4]triazolo[4,3-a]pyridin-6-yl)ethyl)pyrrolidin-3-amine hydrochloride] | 9.05 | 7.64 | 9.68 |
| CCOCCOc1ccc2ccc(-c3nnc4ccc([C@@H](N5CC[C@H](N)C5)C(F)(F)F)cn34)nc2c1 [Example 274, (S)-1-((R)-1-(3-(7-(2-ethoxyethoxy)quinolin-2-yl)-[1,2,4]triazolo[4,3-a]pyridin-6-yl)-2,2,2-trifluoroethyl)pyrrolidin-3-amine dihydrochloride] | 8.77 | 6.02 | 9.40 |
| CC(C)Oc1cc(F)cc2ccc(-c3nnc4ccc([C@H](N5CCC(C)(O)C5)C(F)(F)F)cn34)nc12 (single isomer, unassigned; diastereomer 1) [Example 202, hydrochloride] | 8.10 | < 6.00 | 8.18 |
| COCCOc1cc2nc(-c3nnc4ccc([C@@H](N5CC[C@H](N)C5)C(F)(F)F)cn34)ccc2cc1F [Example 120, (S)-1-((R)-2,2,2-trifluoro-1-(3-(6-fluoro-7-(2-methoxyethoxy)quinolin-2-yl)-[1,2,4]triazolo[4,3-a]pyridin-6-yl)ethyl)pyrrolidin-3-amine hydrochloride] | 8.52 | < 7.00 | 9.33 |
| N[C@H]1CCN([C@H](c2ccc3nnc(-c4ccc5cccc(F)c5n4)n3c2)C(F)(F)F)C1 [Example 168, (S)-1-((R)-2,2,2-trifluoro-1-(3-(8-fluoroquinolin-2-yl)-[1,2,4]triazolo[4,3-a]pyridin-6-yl)ethyl)pyrrolidin-3-amine dihydrochloride] | 7.82 | < 7.00 | 8.76 |
| N[C@H]1CCN([C@H](c2ccc3nnc(-c4ccc5cccc(C6CC6)c5n4)n3c2)C(F)(F)F)C1 [Example 39, (S)-1-((R)-1-(3-(8-cyclopropylquinolin-2-yl)-[1,2,4]triazolo[4,3-a]pyridin-6-yl)-2,2,2-trifluoroethyl)pyrrolidin-3-amine dihydrochloride] | 9.00 | 7.74 | 10.10 |
